Assay results published in the supplement of paper PMC12463676, “Small-molecule dissolution of stress granules by redox modulation benefits ALS models” (Nature Chemical Biology, 2025).

Assays:
[1] = compound: NC(=O)CCCCC1CCSS1 [lipoamide]; experiment: thermal stability z-score vs DMSO; higher = more thermally stabilized by treatment; conditions: HeLa, lipoamide concentration 100 µM
Procedure: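 Cellular thermal proteome profiling in HeLa cells. Cells were treated with 100 µM lipoamide for 1 h, with or without 1 mM arsenate for a further 1 h, then heated to ten temperatures (37-66.3 °C), and soluble protein was quantified by TMT mass spectrometry relative to 0.1% DMSO controls. The thermal stability score (sum of log2 fold changes minus the abundance score) was transformed to a z-score; mean of n = 3 experiments.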

[2] = compound: O=[As]([O-])(O)O.[K+] [potassium arsenate]; experiment: as above; conditions: HeLa; arsenate concentration 1 mM
Procedure: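 Cellular thermal proteome profiling in HeLa cells treated with 1 mM arsenate for 1 h (DMSO pretreatment), heated to ten temperatures (37-66.3 °C). Soluble protein was quantified by TMT mass spectrometry relative to DMSO controls; the thermal stability score was transformed to a z-score; mean of n = 3 experiments.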

[3] = arsenate co-treatment: 1 mM arsenate 1 h
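Further: each temperature applied for 3 min, abundance score taken as mean log2 fold change at the two lowest temperatures, z-score obtained by mean subtraction and division by SD.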

Sequence of UniProt Q7Z6K3 (Q7Z6K3 whole entry): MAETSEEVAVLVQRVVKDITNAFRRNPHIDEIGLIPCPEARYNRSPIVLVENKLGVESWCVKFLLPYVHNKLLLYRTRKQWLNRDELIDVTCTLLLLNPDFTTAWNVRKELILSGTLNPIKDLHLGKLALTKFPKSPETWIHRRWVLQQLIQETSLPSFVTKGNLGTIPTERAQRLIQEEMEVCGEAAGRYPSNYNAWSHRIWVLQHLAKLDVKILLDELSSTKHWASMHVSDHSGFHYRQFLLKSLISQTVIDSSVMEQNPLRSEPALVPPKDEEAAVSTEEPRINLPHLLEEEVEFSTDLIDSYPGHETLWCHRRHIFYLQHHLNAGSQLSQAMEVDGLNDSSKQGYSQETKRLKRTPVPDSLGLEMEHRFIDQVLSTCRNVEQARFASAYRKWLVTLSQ
Sequence of UniProt Q9P2B2 (Q9P2B2 whole entry): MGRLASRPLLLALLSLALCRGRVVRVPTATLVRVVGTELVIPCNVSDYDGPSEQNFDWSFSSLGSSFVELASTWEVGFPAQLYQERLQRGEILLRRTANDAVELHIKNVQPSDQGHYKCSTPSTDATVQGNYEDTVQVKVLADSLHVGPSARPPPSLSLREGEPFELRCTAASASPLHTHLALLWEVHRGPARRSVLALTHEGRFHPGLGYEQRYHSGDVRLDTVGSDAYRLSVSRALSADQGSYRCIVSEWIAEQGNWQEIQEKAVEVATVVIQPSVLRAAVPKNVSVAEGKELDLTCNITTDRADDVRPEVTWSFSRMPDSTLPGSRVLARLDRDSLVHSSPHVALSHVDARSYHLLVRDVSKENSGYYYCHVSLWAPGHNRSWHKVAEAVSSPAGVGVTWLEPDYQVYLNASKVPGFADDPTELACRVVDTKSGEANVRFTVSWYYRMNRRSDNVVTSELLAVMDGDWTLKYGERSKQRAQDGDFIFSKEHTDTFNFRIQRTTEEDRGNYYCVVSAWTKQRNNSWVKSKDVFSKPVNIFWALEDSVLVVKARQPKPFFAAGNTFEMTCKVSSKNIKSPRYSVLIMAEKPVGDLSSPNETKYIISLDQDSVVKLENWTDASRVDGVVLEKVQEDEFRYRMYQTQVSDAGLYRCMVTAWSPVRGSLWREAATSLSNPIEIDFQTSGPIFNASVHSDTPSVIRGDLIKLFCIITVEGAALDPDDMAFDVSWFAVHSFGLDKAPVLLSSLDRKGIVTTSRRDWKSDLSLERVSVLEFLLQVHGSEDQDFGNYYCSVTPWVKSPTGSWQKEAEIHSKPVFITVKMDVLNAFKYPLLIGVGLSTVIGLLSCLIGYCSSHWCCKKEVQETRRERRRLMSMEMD
Sequence of UniProt Q05397 (Q05397 whole entry, looked up): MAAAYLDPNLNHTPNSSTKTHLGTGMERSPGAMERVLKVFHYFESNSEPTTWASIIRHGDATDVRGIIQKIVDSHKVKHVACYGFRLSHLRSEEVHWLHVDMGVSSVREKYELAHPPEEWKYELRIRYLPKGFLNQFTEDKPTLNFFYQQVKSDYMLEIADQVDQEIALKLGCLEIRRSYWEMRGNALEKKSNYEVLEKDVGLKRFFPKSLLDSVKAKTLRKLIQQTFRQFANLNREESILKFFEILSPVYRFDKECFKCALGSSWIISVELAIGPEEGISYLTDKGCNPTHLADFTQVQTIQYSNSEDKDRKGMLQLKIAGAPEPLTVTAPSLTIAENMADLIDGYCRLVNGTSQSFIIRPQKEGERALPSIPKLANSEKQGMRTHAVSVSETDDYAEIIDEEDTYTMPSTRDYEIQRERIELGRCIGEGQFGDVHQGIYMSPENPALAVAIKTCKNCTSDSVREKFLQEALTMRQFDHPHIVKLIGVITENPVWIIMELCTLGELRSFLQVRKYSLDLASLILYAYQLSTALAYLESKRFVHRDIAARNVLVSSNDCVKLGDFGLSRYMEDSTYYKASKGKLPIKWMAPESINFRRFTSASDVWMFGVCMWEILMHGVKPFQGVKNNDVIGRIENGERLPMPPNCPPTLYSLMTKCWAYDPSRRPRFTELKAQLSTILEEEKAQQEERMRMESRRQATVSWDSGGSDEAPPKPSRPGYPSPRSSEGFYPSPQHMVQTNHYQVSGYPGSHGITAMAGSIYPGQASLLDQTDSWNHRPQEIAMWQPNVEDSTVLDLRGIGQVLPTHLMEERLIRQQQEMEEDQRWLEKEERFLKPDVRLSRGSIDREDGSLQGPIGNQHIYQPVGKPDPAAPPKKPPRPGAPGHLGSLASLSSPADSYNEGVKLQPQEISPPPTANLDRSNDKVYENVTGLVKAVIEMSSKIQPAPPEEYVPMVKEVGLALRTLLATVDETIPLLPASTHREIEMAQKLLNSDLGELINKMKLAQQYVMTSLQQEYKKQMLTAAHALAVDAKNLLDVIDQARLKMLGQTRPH
Sequence of UniProt Q15185 (Q15185 whole entry): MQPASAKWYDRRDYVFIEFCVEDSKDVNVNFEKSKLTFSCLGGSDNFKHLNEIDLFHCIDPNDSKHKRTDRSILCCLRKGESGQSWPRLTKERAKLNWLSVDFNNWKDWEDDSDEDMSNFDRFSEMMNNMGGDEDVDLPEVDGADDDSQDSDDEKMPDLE
Sequence of UniProt P06454 (P06454 whole entry): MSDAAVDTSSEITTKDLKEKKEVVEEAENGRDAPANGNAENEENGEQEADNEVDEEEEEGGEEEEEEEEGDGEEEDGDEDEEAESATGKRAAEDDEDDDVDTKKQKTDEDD
Sequence of UniProt Q9H7Z7 (Q9H7Z7 whole entry): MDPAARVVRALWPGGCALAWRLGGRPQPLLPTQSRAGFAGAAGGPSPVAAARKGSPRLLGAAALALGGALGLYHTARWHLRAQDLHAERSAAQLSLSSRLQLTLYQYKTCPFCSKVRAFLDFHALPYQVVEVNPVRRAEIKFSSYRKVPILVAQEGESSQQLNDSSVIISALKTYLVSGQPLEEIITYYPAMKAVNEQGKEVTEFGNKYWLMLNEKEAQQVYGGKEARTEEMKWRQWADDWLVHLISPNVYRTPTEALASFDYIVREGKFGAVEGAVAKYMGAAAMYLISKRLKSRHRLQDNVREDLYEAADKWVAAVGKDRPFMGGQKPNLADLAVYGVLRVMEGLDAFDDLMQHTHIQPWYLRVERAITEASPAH
Sequence of UniProt Q14914 (Q14914 whole entry): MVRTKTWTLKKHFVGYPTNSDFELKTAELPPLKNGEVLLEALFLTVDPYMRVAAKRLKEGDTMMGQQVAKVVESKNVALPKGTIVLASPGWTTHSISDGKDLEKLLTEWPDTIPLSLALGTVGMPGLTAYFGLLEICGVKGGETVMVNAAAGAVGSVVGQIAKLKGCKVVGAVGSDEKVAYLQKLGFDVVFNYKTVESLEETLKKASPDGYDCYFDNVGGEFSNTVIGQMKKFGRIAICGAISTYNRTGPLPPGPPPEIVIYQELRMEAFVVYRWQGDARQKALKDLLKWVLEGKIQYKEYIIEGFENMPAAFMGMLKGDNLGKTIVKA
Sequence of UniProt Q8WV60 (Q8WV60 whole entry): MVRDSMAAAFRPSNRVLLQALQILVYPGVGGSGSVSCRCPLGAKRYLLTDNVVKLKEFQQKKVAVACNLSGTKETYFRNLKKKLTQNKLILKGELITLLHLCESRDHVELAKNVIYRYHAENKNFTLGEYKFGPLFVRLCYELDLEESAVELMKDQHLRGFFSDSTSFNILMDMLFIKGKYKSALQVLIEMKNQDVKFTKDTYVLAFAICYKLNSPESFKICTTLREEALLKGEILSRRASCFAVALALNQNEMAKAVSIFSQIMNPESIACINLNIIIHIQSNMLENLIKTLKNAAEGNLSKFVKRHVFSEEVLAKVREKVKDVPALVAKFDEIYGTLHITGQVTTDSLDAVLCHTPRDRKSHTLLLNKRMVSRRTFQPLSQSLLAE
Sequence of UniProt O95758 (O95758 whole entry): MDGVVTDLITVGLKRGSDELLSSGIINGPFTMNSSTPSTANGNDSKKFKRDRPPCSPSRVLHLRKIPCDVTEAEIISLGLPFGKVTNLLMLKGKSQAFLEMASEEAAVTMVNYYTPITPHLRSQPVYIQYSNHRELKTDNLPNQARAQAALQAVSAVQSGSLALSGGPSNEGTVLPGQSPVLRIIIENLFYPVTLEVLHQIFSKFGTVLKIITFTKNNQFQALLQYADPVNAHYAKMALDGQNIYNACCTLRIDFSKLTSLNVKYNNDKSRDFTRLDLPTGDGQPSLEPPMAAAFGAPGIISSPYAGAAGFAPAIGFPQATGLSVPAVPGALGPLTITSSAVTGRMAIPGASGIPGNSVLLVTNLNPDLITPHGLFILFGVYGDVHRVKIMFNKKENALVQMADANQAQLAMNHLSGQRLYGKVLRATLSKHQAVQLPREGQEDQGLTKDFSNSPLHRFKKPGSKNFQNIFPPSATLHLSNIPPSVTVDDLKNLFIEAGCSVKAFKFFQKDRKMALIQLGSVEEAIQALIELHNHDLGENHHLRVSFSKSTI
Sequence of UniProt Q9UKA9 (Q9UKA9 whole entry): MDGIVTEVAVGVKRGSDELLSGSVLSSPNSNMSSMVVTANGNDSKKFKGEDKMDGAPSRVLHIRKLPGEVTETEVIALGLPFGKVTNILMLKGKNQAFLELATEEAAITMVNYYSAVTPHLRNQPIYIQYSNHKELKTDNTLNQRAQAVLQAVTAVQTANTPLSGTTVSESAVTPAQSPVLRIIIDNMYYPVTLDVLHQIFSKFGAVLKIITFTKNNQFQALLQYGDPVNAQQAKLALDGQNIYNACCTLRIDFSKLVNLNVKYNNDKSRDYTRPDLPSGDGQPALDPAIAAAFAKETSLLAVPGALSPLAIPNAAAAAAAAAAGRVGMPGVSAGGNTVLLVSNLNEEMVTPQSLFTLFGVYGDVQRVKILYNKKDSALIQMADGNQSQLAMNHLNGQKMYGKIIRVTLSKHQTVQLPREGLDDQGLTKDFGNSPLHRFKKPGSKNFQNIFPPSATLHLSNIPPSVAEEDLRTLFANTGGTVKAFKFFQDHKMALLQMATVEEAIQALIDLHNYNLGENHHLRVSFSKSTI

Row | Target | thermal stability z-score [1, 3] | thermal stability z-score ([1]; arsenate co-treatment: none) | thermal stability z-score [2]
1 | PTAR1 (UniProt Q7Z6K3) | 0.548 | 0.408 | 0.1
2 | PTBP1 (UniProt P26599) | 1.1 | 1.82 | 0.184
3 | PTBP2 (UniProt Q9UKA9) | -0.138 | -0.14 | -0.161
4 | PTBP3 (UniProt O95758) | -0.713 | 0.0298 | -0.772
5 | PTCD2 (UniProt Q8WV60) | 0.00948 | -0.0661 | -0.0322
6 | PTCD3 (UniProt Q96EY7) | 0.272 | 0.525 | -0.0411
7 | PTDSS1 (UniProt P48651) | -1.63 | -1.23 | -0.375
8 | PTDSS2 (UniProt Q9BVG9) | 0.2 | -0.0317 | -0.0291
9 | PTEN (UniProt P60484) | -0.0735 | -0.0591 | -0.185
10 | PTER (UniProt Q96BW5) | -0.116 | -0.966 | -0.311
11 | PTGES2 (UniProt Q9H7Z7) | -0.199 | 0.0528 | 0.178
12 | PTGES3 (UniProt Q15185) | 0.0467 | 0.127 | -0.454
13 | PTGFRN (UniProt Q9P2B2) | 0.216 | 0.0155 | 0.0412
14 | PTGR1 (UniProt Q14914) | 1.49 | 1.67 | 0.672
15 | PTGR2 (UniProt Q8N8N7) | 2.64 | 1.03 | 0.744
16 | PTGS2 (UniProt P35354) | -0.361 | 0.261 | 0.269
17 | PTK2 (UniProt Q05397) | 0.189 | 0.122 | -0.0048
18 | PTMA (UniProt P06454) | 1.3 | 1.23 | 0.425
